Reference: US20090227540A1, “TREATMENT OF WOOD BASED ON NOVEL FORMULATIONS OF BORATRANES” (priority 2005, published 2009)
Like-named read-outs stand apart in the source and are kept apart here.

Experiments:
[1] = system: Fomitopsis lilacino-gilva; experiment: malt agar plate growth inhibition, end point/MIC and Kull synergy; assay type: cell-based
Protocol: (§1) To this end an alcoholic aqueous solutions of decyl boratrane and didecyldimethyl ammonium chloride were prepared separately and in combination in a ratio of 3:1 Serial dilutions of the formulations of the respective fungicides and fungicide mixture were added to 3 replicate plates of malt agar under aseptic conditions. Three replicate control plates without fungicide were similarly prepared.
(§2) Onto each plate was placed 6 fungal inoculum squares measuring approximately 5×5 mm. […] The plates were then rated for growth inhibition and the results recorded.
(§3) The absence or presence of synergism may be calculated by the method of F. C. Kull et al., Applied Microbiology, Vol 9, (1961) p 538 et seq. The synergistic index (S.I.) is calculated according to the following formula.
(§4) In the present context the parameters in the formula have the following meaning:
(§5) Qa=The concentration of compound decyl isopropanolamine boratrane (compound A) in mixture which produces and end point. Qb=The concentration of compound didecyldimethyl ammonium chloride (compound B) in mixture which produces and end point. QA=The concentration of compound decyl isopropanolamine boratrane (compound A) alone which produces and end point. QB=The concentration of compound didecyldimethyl ammonium chloride (compound B) alone which produces and end point. QC=The concentration of the mixture of didecyldimethyl ammonium chloride and decyl isopropanolamine boratrane (compounds A+B) which together produces and end point.
(§6) If the synergistic index is above 1, this means that antagonism is present. If the synergistic index equals 1, this means that an additive effect of the two biocides exist. If the synergistic index is less than 1, this means that synergism of the two biocides exist.
(§7) To this end an alcoholic aqueous solution of decyl boratrane and didecyldimethyl ammonium chloride was formulated in a ratio of 3:1. In a separate formulation a micro-emulsion of triadimefon was prepared. Serial dilutions of the formulations of the respective fungicides were added to 3 replicate plates of malt agar under aseptic conditions and tested for synergism under the same conditions as example 7 at ratios of 10:1 and 20:1 boratrane didecyldimethyl ammonium chloride mixture to 1 of triadimefon.
(§8) The synergy experiment in Example 8 was repeated at two additional ratios of 5:1 and 50:1. The results are sumarised in tables 14 and 15.

[2] = system: Tyromyces palustris; experiment: as above; assay type: cell-based
Protocol: as §1, §2, §3, §4, §5, §6, §7, §8

[3] = system: Antroda xantha; experiment: as above; assay type: cell-based
Protocol: as §1, §2, §3, §4, §5, §6, §7, §8

[4] = system: Pycnoporus coccineus; experiment: as above; assay type: cell-based
Protocol: as §1, §2, §3, §4, §5, §6, §7, §8

[5] = system: Trametes versicolor; experiment: as above; assay type: cell-based
Protocol: as §1, §2, §3, §4, §5, §6, §7, §8

[6] = cited from earlier work
[7] = system: Fomitopsis lilacino-gilva; experiment: decay of treated, leached radiata pine blocks (AWPA protocol); assay type: cell-based
Protocol: (§9) A more rigorous examination of the potential synergism of was carried out on leached wood blocks. Radiata pine blocks were cut to size (20×20×20 mm) and labeled according to treatment level. The blocks were then vacuum impregnated at
(§10) −95 kpa with the various treatments as specified in table 16. The aqueous or alcoholic carrier solvents were then allowed to air dry for a period of 5 days. The blocks were then subjected to leaching and biological attack in accordance with the AWPA's “Proctocols for assessment of Wood Preservatives.” The fungal species used were Tyromyces palustris, Coniophora puteana and Fomitopsis lilacino-gilva.
(§11) inhibition of growth by fungicide B at retention q. E is the expected additive inhibition of the two fungicides. If a greater inhibition occurs with the combined treatment than the two fungicides acting alone synergism is defined to be present.

[8] = system: Coniophora puteana; experiment: as above; assay type: cell-based
Protocol: as §9, §10, §11

[9] = system: Tyromyces palustris; experiment: as above; assay type: cell-based
Protocol: as §9, §10, §11

[10] = system: P. tephropora; conditions: Humphrey et al; cited from earlier work
[11] = system: G. abietinum; conditions: Humphrey et al; cited from earlier work
[12] = Ex 7, Table 5 prints no unit (ppm in Tables 1-4)
[13] = Ex 8, A=DIPB DDAC 3:1, B=triadimefon
[14] = Ex 9 repeat, A=DIPB DDAC 3:1, B=triadimefon

## CCCCCCCCCC[N+](C)(C)CCCCCCCCCC.[Cl-] [DDAC, didecyldimethyl ammonium chloride]
[1]
  MIC: 256 µg/mL
[1]; Ex 7, A=DIPB, B=DDAC
  QB end point concentration, B alone: 256
[2]
  MIC: 1020 µg/mL
[2]; Ex 7, A=DIPB, B=DDAC
  QB end point concentration, B alone: 1024
[3]
  MIC: 256 µg/mL
[3]; Ex 7, A=DIPB, B=DDAC
  QB end point concentration, B alone: 256
[4]; Ex 7, A=DIPB, B=DDAC
  QB end point concentration, B alone: 2048
[4]; [12]
  MIC: 2048
[5]; Ex 7, A=DIPB, B=DDAC
  QB end point concentration, B alone: 2048
[5]; Trametes versicolor
  MIC: > 1020 µg/mL

## CC(C)(C)C(=O)C(Oc1ccc(Cl)cc1)n1cncn1 (stereo not drawn) [Triadimefon]
[1]; [13]
  QB end point concentration, B alone: 4
[1]; Ex 8, read-out: MIC
  MIC: 4 µg/mL
[1]; [14]
  QB end point concentration, B alone: 8
[2]; [13]
  QB end point concentration, B alone: 32
[2]; Ex 8, read-out: MIC
  MIC: 32 µg/mL
[2]; [14]
  QB end point concentration, B alone: 16
[3]; [13]
  QB end point concentration, B alone: 4
[3]; Ex 8, read-out: MIC
  MIC: 4 µg/mL
[3]; [14]
  QB end point concentration, B alone: 4
[4]; [13]
  QB end point concentration, B alone: 128
[4]; [14]
  QB end point concentration, B alone: 0.5
[4]; Trametes coccinea, Ex 8, read-out: MIC
  MIC: 4 µg/mL
[5]; [13]
  QB end point concentration, B alone: 4
[5]; [14]
  QB end point concentration, B alone: 4
[5]; Trametes versicolor, Ex 8, read-out: MIC
  MIC: 128 µg/mL

## CCCCCCCCCCC1C[N+]23CC(C)O[B-]2(OC(C)C3)O1 (stereo not drawn) [DIPB, 3,7-dimethyl-10-decyl-2,8,9-trioxa-5-aza-1-boratricyclo-[3.3.3.0]-undecane]
[6]; analysis of the lap joints each year
  rate of boron leaching: significantly lower than boric acid
[6]; weather exposed lap joints
  efficacy compared to boric acid: superior efficacy
[1]; Ex 7
  MIC: 2048 ppm
[1]; Ex 7, A=DIPB, B=DDAC
  QA end point concentration, A alone: 2048
[2]; Ex 7
  MIC: 1024 ppm
[2]; Ex 7, A=DIPB, B=DDAC
  QA end point concentration, A alone: 1024
[3]; Ex 7
  MIC: 256 ppm
[3]; Ex 7, A=DIPB, B=DDAC
  QA end point concentration, A alone: 256
[4]; Ex 7, A=DIPB, B=DDAC
  QA end point concentration, A alone: 256
[4]; [12]
  MIC: 2048
[5]; Ex 7
  MIC: 256 ppm
[5]; Ex 7, A=DIPB, B=DDAC
  QA end point concentration, A alone: 2048
[7]; retention 0.1% w b.a.e.
  Mass loss %: 32.95%
[7]; retention 0.2% w b.a.e.
  Mass loss %: 34.58%
[7]; retention 0.4% w b.a.e
  Mass loss %: 10.09%
[7]; retention 0.8% w b.a.e
  Mass loss %: 0.29%
[8]; retention 0.1% w b.a.e.
  Mass loss %: 56.25%
[8]; retention 0.2% w b.a.e.
  Mass loss %: 47.62%
[8]; retention 0.4% w b.a.e
  Mass loss %: 27.93%
[8]; retention 0.8% w b.a.e
  Mass loss %: 4.64%
[9]; retention 0.1% w b.a.e.
  Mass loss %: 22.55%
[9]; retention 0.2% w b.a.e.
  Mass loss %: 26.55%
[9]; retention 0.4% w b.a.e
  Mass loss %: 21.33%
[9]; retention 0.8% w b.a.e
  Mass loss %: 0.86%

## alkyldimethyl benzyl ammonium chloride [Benzalkonium Chloride 50%]
[7]; retention ADBAC 0.16% w
  Mass loss %: 30.66%
[7]; retention ADBAC 0.33% w
  Mass loss %: 29.44%
[7]; retention ADBAC 0.66% w
  Mass loss %: 27.92%
[7]; retention ADBAC 1.33% w
  Mass loss %: 4.27%
[8]; retention ADBAC 0.16% w
  Mass loss %: 60.59%
[8]; retention ADBAC 0.33% w
  Mass loss %: 48.9%
[8]; retention ADBAC 0.66% w
  Mass loss %: 39.16%
[8]; retention ADBAC 1.33% w
  Mass loss %: 17.72%
[9]; retention ADBAC 0.16% w
  Mass loss %: 21.68%
[9]; retention ADBAC 0.33% w
  Mass loss %: 25.03%
[9]; retention ADBAC 0.66% w
  Mass loss %: 23.72%
[9]; retention ADBAC 1.33% w
  Mass loss %: 12.61%

## OB(O)O [Boric acid]
[7]; retention Boric acid 0.4% w
  Mass loss %: 32.91%
[7]; retention Boric acid 0.8% w
  Mass loss %: 30.6%
[8]; retention Boric acid 0.4% w
  Mass loss %: 47.37%
[8]; retention Boric acid 0.8% w
  Mass loss %: 43.4%
[9]; retention Boric acid 0.4% w
  Mass loss %: 23.66%
[9]; retention Boric acid 0.8% w
  Mass loss %: 24.67%

## CCCC[N+](CCCC)(CCCC)CCCC.c1ccc2c(c1)CO[B-]1(OCc3ccccc3O1)O2
[10]
  inhibition of the fungi: complete inhibition
[11]
  inhibition of the fungi: complete inhibition
